Measurements as given in ChEMBL document CHEMBL1134191, “Pharmacophore-based discovery, synthesis, and biological evaluation of 4-phenyl-1-arylalkyl piperidines as dopamine transporter inhibitors” (Bioorg Med Chem Lett, 2001).

Legend:
Rattus norvegicus [1] = species: Rattus norvegicus; assay: Inhibition of [3H]-dopamine uptake into striatal membrane preparations; type: functional, Striatum
Rattus norvegicus [2] = species: Rattus norvegicus; assay: Inhibition of [3H]dopamine uptake by striatal membrane preparations; type: functional, Striatum
Rattus norvegicus [3] = species: Rattus norvegicus; assay: Inhibitory concentration for [3H]dopamine uptake by striatal membrane preparations in presence of 20 nM compound 43; type: functional; conditions: Striatum
Rattus norvegicus [4] = species: Rattus norvegicus; assay: Inhibitory concentration for [3H]-dopamine uptake by striatal membrane preparations in presence of 1000 nM compound 5; type: functional; conditions: Striatum
Rattus norvegicus [5] = species: Rattus norvegicus; assay: Inhibitory concentration for [3H]dopamine uptake by striatal membrane preparations in presence of 500 nM compound 5; type: functional; conditions: Striatum
Rattus norvegicus [6] = species: Rattus norvegicus; assay: Inhibitory concentration for [3H]-dopamine uptake by striatal membrane preparations in presence of 50 nM compound 43; type: functional; conditions: Striatum

SMILES | Ki (Rattus norvegicus [1]) | further results
Clc1ccc(OCCN2CCC(c3ccc(Cl)cc3)CC2)cc1 | 90 nM | 
Fc1ccc(OCCN2CCC(c3ccccc3)CC2)cc1 | 2720 nM | 
Fc1ccc(OCCN2CCC(c3ccc(F)cc3)CC2)cc1 |  | Ki (Rattus norvegicus [2]): 840 nM
Fc1ccc(CCN2CCC(c3ccc(F)cc3)CC2)cc1 | 1360 nM | 
Fc1ccc(CCCCN2CCC(c3ccc(F)cc3)CC2)cc1 | 2540 nM | 
OC1(c2ccccc2)CCN(CCOc2ccc(F)cc2)CC1 | 17600 nM | 
O=C(CCN1CCC(c2ccccc2)CC1)c1ccc(F)cc1 | 1560 nM | 
Fc1ccc(CN2CCC(c3ccc(F)cc3)CC2)cc1 | > 10000 nM | 
O=C(CCCN1CCC(c2ccc(F)cc2)CC1)c1ccc(F)cc1 | 3170 nM | 
O=C(CN1CCC(c2ccc(F)cc2)CC1)c1ccc(F)cc1 | 4330 nM | 
O=C(CCN1CCC(c2ccc(F)cc2)CC1)c1ccc(F)cc1 | 2670 nM | 
COC(=O)[C@H]1[C@@H](OC(=O)c2ccccc2)C[C@@H]2CC[C@H]1N2C [COCAINE] |  | IC50 (Rattus norvegicus [3]): 490 nM; IC50 (Rattus norvegicus [4]): 686 nM; IC50 (Rattus norvegicus [5]): 538 nM; IC50 (Rattus norvegicus [6]): 696 nM
